Measured values published in ChEMBL document CHEMBL1201862, “PubChem BioAssay data set” (2004).
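Dose response: 5 concentrations. Exposure: 48 h. Format: 96-well plates. Endpoint: linear interpolation; highest concentration if not reached. GI50 is the concentration that inhibits growth by half.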 The source made the active and inactive calls. No stated cut-off is given here; in the data, active = GI50 up to about 1.1 µM and inactive = higher.

Tests used:
Assay in all cases: NCI tumour cell line growth inhibition, 48 h
HOP-62 = tested on: HOP-62
ACHN = tested on: ACHN
SK-MEL-2 = tested on: SK-MEL-2
IGROV-1 = tested on: IGROV-1
OVCAR-8 = tested on: OVCAR-8
NCI-H23 = tested on: NCI-H23
TK-10 = tested on: TK-10
NCI-H522 = tested on: NCI-H522
K562 = tested on: K562
SK-OV-3 = tested on: SK-OV-3
U-251 = tested on: U-251
SK-MEL-28 = tested on: SK-MEL-28
LOX IMVI = tested on: LOX IMVI
OVCAR-5 = tested on: OVCAR-5
Malme-3M = tested on: Malme-3M
HOP-92 = tested on: HOP-92
OVCAR-4 = tested on: OVCAR-4
HL-60 = tested on: HL-60
EKVX = tested on: EKVX
RPMI-8226 = tested on: RPMI-8226

| Structure (SMILES) | GI50 (HOP-62) | GI50 (ACHN) | GI50 (SK-MEL-2) | GI50 (IGROV-1) | GI50 (OVCAR-8) | GI50 (NCI-H23) | GI50 (TK-10) | GI50 (NCI-H522) | GI50 (K562) | GI50 (SK-OV-3) | GI50 (U-251) | GI50 (SK-MEL-28) | GI50 (LOX IMVI) | GI50 (OVCAR-5) | GI50 (Malme-3M) | GI50 (HOP-92) | GI50 (OVCAR-4) | GI50 (HL-60) | GI50 (EKVX) | GI50 (RPMI-8226) |
| --- | --- | --- | --- | --- | --- | --- | --- | --- | --- | --- | --- | --- | --- | --- | --- | --- | --- | --- | --- | --- |
| COC(=O)c1ccccc1C1CN=NC12Cc1c(C)c3c(c(C)c1C2=O)CCC3 (centres undefined) | 77.4 µM (inactive) | > 100 µM (inactive) | > 100 µM (inactive) | > 100 µM (inactive) | > 100 µM (inactive) | 54.6 µM (inactive) | 2.48 µM (inactive) | 33.7 µM (inactive) | > 100 µM (inactive) | > 100 µM (inactive) | > 100 µM (inactive) | > 100 µM (inactive) | > 100 µM (inactive) | > 100 µM (inactive) | > 100 µM (inactive) | 22.5 µM (inactive) | > 100 µM (inactive) | > 100 µM (inactive) | > 100 µM (inactive) | – |
| Cc1cc(C)cc(NC(N)=S)c1 | > 100 µM (inactive) | > 100 µM (inactive) | > 100 µM (inactive) | > 100 µM (inactive) | > 100 µM (inactive) | > 100 µM (inactive) | > 100 µM (inactive) | > 100 µM (inactive) | > 100 µM (inactive) | – | 38.6 µM (inactive) | > 100 µM (inactive) | 29.1 µM (inactive) | > 100 µM (inactive) | > 100 µM (inactive) | > 100 µM (inactive) | > 100 µM (inactive) | 30.8 µM (inactive) | > 100 µM (inactive) | 31.1 µM (inactive) |
| O=C(NCCN(CCNC(=O)c1cccc(O)c1O)CCNC(=O)c1cccc(O)c1O)c1cccc(O)c1O [TRENCAM] | 6.59 µM (inactive) | 4.2 µM (inactive) | 33.2 µM (inactive) | 4.73 µM (inactive) | 3.15 µM (inactive) | 11.5 µM (inactive) | > 56.1 µM (inactive) | 0.826 µM (active) | 5.28 µM (inactive) | 16.7 µM (inactive) | 6.49 µM (inactive) | 3.82 µM (inactive) | 1.22 µM (inactive) | 66.2 µM (inactive) | 2.51 µM (inactive) | 7.53 µM (inactive) | 0.578 µM (active) | 8.02 µM (inactive) | 41.4 µM (inactive) | – |
| CCOC(=O)CCC1(C(=O)OC)CCCC1=O (centres undefined) | > 100 µM (inactive) | > 100 µM (inactive) | > 100 µM (inactive) | > 100 µM (inactive) | > 100 µM (inactive) | > 100 µM (inactive) | > 100 µM (inactive) | > 100 µM (inactive) | > 100 µM (inactive) | > 100 µM (inactive) | > 100 µM (inactive) | > 100 µM (inactive) | > 100 µM (inactive) | > 100 µM (inactive) | > 100 µM (inactive) | > 100 µM (inactive) | – | > 100 µM (inactive) | > 100 µM (inactive) | > 100 µM (inactive) |
| CCOC(=O)c1cc([N+](=O)[O-])c(Sc2ncnc3nc[nH]c23)c([N+](=O)[O-])c1 | 11.1 µM (inactive) | 6.85 µM (inactive) | 8.89 µM (inactive) | 1.26 µM (inactive) | 4.74 µM (inactive) | 7.13 µM (inactive) | 1.09 µM (active) | 0.643 µM (active) | 0.53 µM (active) | 0.308 µM (active) | 6.82 µM (inactive) | 14.3 µM (inactive) | 0.378 µM (active) | 1.66 µM (inactive) | 3.15 µM (inactive) | 1.03 µM (active) | – | 4.19 µM (inactive) | 4.92 µM (inactive) | 0.865 µM (active) |
| CN(C)c1ccc(C(c2ccc(Cl)cc2)c2ccc(N(C)C)cc2)cc1 | > 100 µM (inactive) | > 100 µM (inactive) | > 100 µM (inactive) | > 100 µM (inactive) | 99.1 µM (inactive) | > 100 µM (inactive) | > 100 µM (inactive) | 28.5 µM (inactive) | 83 µM (inactive) | > 100 µM (inactive) | > 100 µM (inactive) | > 100 µM (inactive) | > 100 µM (inactive) | > 100 µM (inactive) | 30.1 µM (inactive) | > 100 µM (inactive) | – | > 100 µM (inactive) | 62.5 µM (inactive) | 30.1 µM (inactive) |
| CC1(C)C2CC3C4CC5(Nc6ccccc6C5N41)[C@]3(C)CC2=O (some centres undefined) | > 50 µM (inactive) | > 50 µM (inactive) | > 50 µM (inactive) | > 50 µM (inactive) | > 50 µM (inactive) | > 50 µM (inactive) | > 50 µM (inactive) | > 50 µM (inactive) | > 50 µM (inactive) | – | > 50 µM (inactive) | > 50 µM (inactive) | > 50 µM (inactive) | > 50 µM (inactive) | > 50 µM (inactive) | 12.5 µM (inactive) | > 50 µM (inactive) | > 50 µM (inactive) | > 50 µM (inactive) | > 50 µM (inactive) |
| C[C@@H](C(=O)O)N1C(c2ccco2)=C(/C(C=O)=C\c2ccco2)C(=O)/C1=C\c1ccco1 | > 100 µM (inactive) | > 100 µM (inactive) | > 100 µM (inactive) | > 100 µM (inactive) | > 100 µM (inactive) | > 100 µM (inactive) | > 100 µM (inactive) | > 100 µM (inactive) | > 100 µM (inactive) | – | > 100 µM (inactive) | > 100 µM (inactive) | > 100 µM (inactive) | > 100 µM (inactive) | > 100 µM (inactive) | > 100 µM (inactive) | > 100 µM (inactive) | > 100 µM (inactive) | > 100 µM (inactive) | > 100 µM (inactive) |
| N#Cc1c(N)[nH]c(=S)c(C#N)c1-c1cccc(Cl)c1 | 42.4 µM (inactive) | 61.1 µM (inactive) | 20.3 µM (inactive) | 32.9 µM (inactive) | 30.1 µM (inactive) | 71.9 µM (inactive) | 65.2 µM (inactive) | 18.9 µM (inactive) | 26.2 µM (inactive) | – | 25.9 µM (inactive) | 39.6 µM (inactive) | 39.9 µM (inactive) | > 100 µM (inactive) | 56.1 µM (inactive) | 24.4 µM (inactive) | 40.7 µM (inactive) | 23.2 µM (inactive) | 25.6 µM (inactive) | 23.8 µM (inactive) |
| CC1=C(C)CC2(C=C(C(C)(C)C)C(=O)C(C(C)(C)C)=C2)SC1 | 19.3 µM (inactive) | – | 12.3 µM (inactive) | 13.9 µM (inactive) | – | 18.5 µM (inactive) | 18.6 µM (inactive) | 1.91 µM (inactive) | 30.3 µM (inactive) | 25 µM (inactive) | 15.6 µM (inactive) | – | 17.4 µM (inactive) | 20.1 µM (inactive) | 14.2 µM (inactive) | 19.2 µM (inactive) | 26.7 µM (inactive) | 18.3 µM (inactive) | 18.6 µM (inactive) | 12.8 µM (inactive) |
| CC1(C)O[C@H]2Cn3c(c(C#N)c4ccccc43)[C@H]2O1 | > 100 µM (inactive) | > 100 µM (inactive) | > 100 µM (inactive) | > 100 µM (inactive) | – | > 100 µM (inactive) | > 100 µM (inactive) | > 100 µM (inactive) | – | > 100 µM (inactive) | > 100 µM (inactive) | > 100 µM (inactive) | – | > 100 µM (inactive) | > 100 µM (inactive) | > 100 µM (inactive) | > 100 µM (inactive) | > 100 µM (inactive) | > 100 µM (inactive) | > 100 µM (inactive) |
| Nc1n[n+]2cc(-c3ccccc3)n(CC(=O)c3ccccc3)c2s1 | 24.8 µM (inactive) | 65.2 µM (inactive) | 15.5 µM (inactive) | 70.8 µM (inactive) | 52 µM (inactive) | 20.6 µM (inactive) | 23.6 µM (inactive) | 13.3 µM (inactive) | 29.7 µM (inactive) | > 100 µM (inactive) | 16.1 µM (inactive) | – | 17.9 µM (inactive) | 18.8 µM (inactive) | 12.2 µM (inactive) | 14.1 µM (inactive) | – | 35.5 µM (inactive) | 39.6 µM (inactive) | 17.1 µM (inactive) |
| CCOP(=O)(C=C=C(C)C)OCC | > 100 µM (inactive) | > 100 µM (inactive) | > 100 µM (inactive) | > 100 µM (inactive) | > 100 µM (inactive) | > 100 µM (inactive) | > 100 µM (inactive) | 36.4 µM (inactive) | > 100 µM (inactive) | > 100 µM (inactive) | > 100 µM (inactive) | > 100 µM (inactive) | > 100 µM (inactive) | > 100 µM (inactive) | > 100 µM (inactive) | > 100 µM (inactive) | > 100 µM (inactive) | 94.6 µM (inactive) | > 100 µM (inactive) | – |
| CN1C(=O)C(O)CC1c1ccccc1F (centres undefined) | > 100 µM (inactive) | > 100 µM (inactive) | > 100 µM (inactive) | > 100 µM (inactive) | > 100 µM (inactive) | > 100 µM (inactive) | – | > 100 µM (inactive) | > 100 µM (inactive) | – | > 100 µM (inactive) | > 100 µM (inactive) | > 100 µM (inactive) | > 100 µM (inactive) | > 100 µM (inactive) | > 100 µM (inactive) | > 100 µM (inactive) | > 100 µM (inactive) | > 100 µM (inactive) | > 100 µM (inactive) |
| CC1SC2(CCCCC2)N(NC(=O)CSc2nc3ccc(Cl)cc3c(=O)n2-c2ccccc2)C1=O (centres undefined) | 18 µM (inactive) | 29.6 µM (inactive) | 17.3 µM (inactive) | 12 µM (inactive) | 26.1 µM (inactive) | 23.2 µM (inactive) | 47.1 µM (inactive) | 18.8 µM (inactive) | 19.5 µM (inactive) | 33.3 µM (inactive) | 17.5 µM (inactive) | 32.6 µM (inactive) | 19.5 µM (inactive) | 25.7 µM (inactive) | 30.8 µM (inactive) | 22.3 µM (inactive) | 30.4 µM (inactive) | 23.6 µM (inactive) | 42.5 µM (inactive) | – |
